Measured values reported in US6458748B1, “Di- or tri-fluoromethanesulfonyl anilide derivatives, process for the preparation of them and herbicides containing them as the active ingredient” (Ihara Chemical Industry Co., Ltd., priority 1998, dated 2002).

Key:
Sagittaria pygmaea Miq. [1] = test: Test 4 paddy pot herbicidal effect; conditions: applied next day, 28th day from application
[2] = tested on: Monochoria vaginalis (Burm. f.) Presl var. plantaginea (Roxb.) Solms-Laub.; test: Test 1 paddy pot herbicidal effect, water surface application; type: in vivo; conditions: applied day after sowing, evaluated 28 days later
From the text: (§1) Standard of herbicidal effect (level of suppression of development and growth) […] Herbicidal effect of 90% or more, injury to paddy rice […] Herbicidal effect of 70% or more to less than 90%, injury to paddy rice […] 2: […]

[3] = tested on: Echinochloa oryzicola vasing.; test: as above; type: in vivo; conditions: applied day after sowing, evaluated 28 days later
From the text: as §1

Cyperus serotinus Rottb. = test: Test 4 paddy pot herbicidal effect; conditions: applied next day, 28th day from application
[4] = tested on: Echindchloa oryzicola Vasing. (Ec); test: Test 5 herbicidal effect by application stage; conditions: 28th day from application
[5] = tested on: Echinochloa oryzicola vasing.; test: Test 4 paddy pot herbicidal effect; conditions: applied next day, 28th day from application
[6] = tested on: Echinochloa oryzicola vasing.; test: Test 3 herbicidal effect, application before germination or at 3-leaf stage; conditions: 28th day from application
[7] = tested on: Monochoria vaginalis (Burm. f.) Presl var. plantaginea (Roxb.) Solms-Laub.; test: Test 2 paddy pot herbicidal effect with water drainage and feeding; type: in vivo; conditions: water drainage and feeding 2 cm per day for two days, 28th day
Protocol: (§2) Further, a tuber of Sagittaria pygmaea Miq. was buried. […] For two days starting from the next day, water drainage and feeding each of 2 cm in depth per day were conducted.

Sagittaria pygmaea Miq. [8] = test: as above; type: in vivo; conditions: water drainage and feeding 2 cm per day for two days, 28th day
Protocol: as §2

[9] = tested on: Oryza sativa L. (paddy rice); test: Test 4 injury to paddy rice; conditions: two-leaf stage seedlings, 28th day from application

Compound: 2-[(4,6-dimethoxypyrimidine-2-yl)hydroxymethyl]-6-methoxymethyltrifluoromethanesulfonyl anilide [Example 4]
- Herbicidal effect Sa (Sagittaria pygmaea Miq. [1]; 0.6 g/10 ares): 4 (Herbicidal effect of 70% or more to less than 90%, injury to paddy rice)
- Herbicidal effect Sa (Sagittaria pygmaea Miq. [1]; 1.3 g/10 ares): 5 (Herbicidal effect of 90% or more, injury to paddy rice)
- Herbicidal effect Sa (Sagittaria pygmaea Miq. [1]; 2.5 g/10 ares): 5 (Herbicidal effect of 90% or more, injury to paddy rice)
- Herbicidal effect Sa (Sagittaria pygmaea Miq. [1]; 5.0 g/10 ares): 5 (Herbicidal effect of 90% or more, injury to paddy rice)
- Herbicidal effect Mo ([2]; 0.4 g/10 ares): 3 (Herbicidal effect of 50% or more to less than 70%, injury to paddy rice)
- Herbicidal effect Mo ([2]; 1.6 g/10 ares): 5 (Herbicidal effect of 90% or more, injury to paddy rice)
- Herbicidal effect Mo ([2]; 6.3 g/10 ares): 5 (Herbicidal effect of 90% or more, injury to paddy rice)
- Herbicidal effect Mo ([2]; 25.0 g/10 ares): 5 (Herbicidal effect of 90% or more, injury to paddy rice)
- Herbicidal effect Ec ([3]; 0.4 g/10 ares): 2 (Herbicidal effect of 30% or more to less than 50%, injury to paddy rice)
- Herbicidal effect Ec ([3]; 1.6 g/10 ares): 5 (Herbicidal effect of 90% or more, injury to paddy rice)
- Herbicidal effect Ec ([3]; 6.3 g/10 ares): 5 (Herbicidal effect of 90% or more, injury to paddy rice)
- Herbicidal effect Ec ([3]; 25.0 g/10 ares): 5 (Herbicidal effect of 90% or more, injury to paddy rice)
- Herbicidal effect Cy (Cyperus serotinus Rottb.; 0.6 g/10 ares): 4 (Herbicidal effect of 70% or more to less than 90%, injury to paddy rice)
- Herbicidal effect Cy (Cyperus serotinus Rottb.; 1.3 g/10 ares): 5 (Herbicidal effect of 90% or more, injury to paddy rice)
- Herbicidal effect Cy (Cyperus serotinus Rottb.; 2.5 g/10 ares): 5 (Herbicidal effect of 90% or more, injury to paddy rice)
- Herbicidal effect Cy (Cyperus serotinus Rottb.; 5.0 g/10 ares): 5 (Herbicidal effect of 90% or more, injury to paddy rice)
- Herbicidal effect (Ec) Application stage 1-leaf ([4]; 1.3 g/10 ares): 4 (Herbicidal effect of 70% or more to less than 90%, injury to paddy rice)
- Herbicidal effect (Ec) Application stage 2-leaf ([4]; 1.3 g/10 ares): 3 (Herbicidal effect of 50% or more to less than 70%, injury to paddy rice)
- Herbicidal effect (Ec) Application stage 3-leaf ([4]; 1.3 g/10 ares): 3 (Herbicidal effect of 50% or more to less than 70%, injury to paddy rice)
- Herbicidal effect (Ec) Application stage 1-leaf ([4]; 2.5 g/10 ares): 5 (Herbicidal effect of 90% or more, injury to paddy rice)
- Herbicidal effect (Ec) Application stage 2-leaf ([4]; 2.5 g/10 ares): 5 (Herbicidal effect of 90% or more, injury to paddy rice)
- Herbicidal effect (Ec) Application stage 3-leaf ([4]; 2.5 g/10 ares): 5 (Herbicidal effect of 90% or more, injury to paddy rice)
- Herbicidal effect (Ec) Application stage 1-leaf ([4]; 5.0 g/10 ares): 5 (Herbicidal effect of 90% or more, injury to paddy rice)
- Herbicidal effect (Ec) Application stage 2-leaf ([4]; 5.0 g/10 ares): 5 (Herbicidal effect of 90% or more, injury to paddy rice)
- Herbicidal effect (Ec) Application stage 3-leaf ([4]; 5.0 g/10 ares): 5 (Herbicidal effect of 90% or more, injury to paddy rice)
- Herbicidal effect Ec ([5]; 0.6 g/10 ares): 2 (Herbicidal effect of 30% or more to less than 50%, injury to paddy rice)
- Herbicidal effect Ec ([5]; 1.3 g/10 ares): 4 (Herbicidal effect of 70% or more to less than 90%, injury to paddy rice)
- Herbicidal effect Ec ([5]; 2.5 g/10 ares): 5 (Herbicidal effect of 90% or more, injury to paddy rice)
- Herbicidal effect Ec ([5]; 5.0 g/10 ares): 5 (Herbicidal effect of 90% or more, injury to paddy rice)

Compound: COc1cc(OC)nc(C(O)c2ccccc2NS(=O)(=O)C(F)(F)F)n1 (centres unmarked) [Comparative Compound, 2-[(4,6-dimethoxypyrimidine-2-yl)hydroxymethyl]-N-trifluoromethanes ulfonyl anilide, reference compound]
- Herbicidal effect (Ec) Application at 3-leaf stage ([6]; 0.3 g/10 ares): 0 (Herbicidal effect of less than 10%, injury to paddy rice)
- Herbicidal effect (Ec) Application before germination ([6]; 0.3 g/10 ares): 0 (Herbicidal effect of less than 10%, injury to paddy rice)
- Herbicidal effect (Ec) Application at 3-leaf stage ([6]; 0.6 g/10 ares): 0 (Herbicidal effect of less than 10%, injury to paddy rice)
- Herbicidal effect (Ec) Application before germination ([6]; 0.6 g/10 ares): 0 (Herbicidal effect of less than 10%, injury to paddy rice)
- Herbicidal effect (Ec) Application at 3-leaf stage ([6]; 1.3 g/10 ares): 0 (Herbicidal effect of less than 10%, injury to paddy rice)
- Herbicidal effect (Ec) Application before germination ([6]; 1.3 g/10 ares): 1 (Herbicidal effect of 10% or more to less than 30%, injury to paddy rice)
- Herbicidal effect (Ec) Application at 3-leaf stage ([6]; 2.5 g/10 ares): 0 (Herbicidal effect of less than 10%, injury to paddy rice)
- Herbicidal effect (Ec) Application before germination ([6]; 2.5 g/10 ares): 2 (Herbicidal effect of 30% or more to less than 50%, injury to paddy rice)
- Herbicidal effect (Ec) Application at 3-leaf stage ([6]; 5.0 g/10 ares): 1 (Herbicidal effect of 10% or more to less than 30%, injury to paddy rice)
- Herbicidal effect (Ec) Application before germination ([6]; 5.0 g/10 ares): 3 (Herbicidal effect of 50% or more to less than 70%, injury to paddy rice)
- Herbicidal effect Sa (Sagittaria pygmaea Miq. [1]; 0.6 g/10 ares): 5 (Herbicidal effect of 90% or more, injury to paddy rice)
- Herbicidal effect Sa (Sagittaria pygmaea Miq. [1]; 1.3 g/10 ares): 5 (Herbicidal effect of 90% or more, injury to paddy rice)
- Herbicidal effect Sa (Sagittaria pygmaea Miq. [1]; 2.5 g/10 ares): 5 (Herbicidal effect of 90% or more, injury to paddy rice)
- Herbicidal effect Sa (Sagittaria pygmaea Miq. [1]; 5.0 g/10 ares): 5 (Herbicidal effect of 90% or more, injury to paddy rice)
- Herbicidal effect Ec ([7]; 0.6 g/10 ares): 0 (Herbicidal effect of less than 10%, injury to paddy rice)
- Herbicidal effect Ec ([7]; 1.3 g/10 ares): 1 (Herbicidal effect of 10% or more to less than 30%, injury to paddy rice)
- Herbicidal effect Ec ([7]; 2.5 g/10 ares): 3 (Herbicidal effect of 50% or more to less than 70%, injury to paddy rice)
- Herbicidal effect Ec ([7]; 5.0 g/10 ares): 5 (Herbicidal effect of 90% or more, injury to paddy rice)
- Herbicidal effect Sc (Sagittaria pygmaea Miq. [8]; 0.6 g/10 ares): 0 (Herbicidal effect of less than 10%, injury to paddy rice)
- Herbicidal effect Sc (Sagittaria pygmaea Miq. [8]; 1.3 g/10 ares): 2 (Herbicidal effect of 30% or more to less than 50%, injury to paddy rice)
- Herbicidal effect Sc (Sagittaria pygmaea Miq. [8]; 2.5 g/10 ares): 4 (Herbicidal effect of 70% or more to less than 90%, injury to paddy rice)
- Herbicidal effect Sc (Sagittaria pygmaea Miq. [8]; 5.0 g/10 ares): 5 (Herbicidal effect of 90% or more, injury to paddy rice)
- Herbicidal effect Mo ([2]; 0.4 g/10 ares): 4 (Herbicidal effect of 70% or more to less than 90%, injury to paddy rice)
- Herbicidal effect Mo ([2]; 1.6 g/10 ares): 5 (Herbicidal effect of 90% or more, injury to paddy rice)
- Herbicidal effect Mo ([2]; 6.3 g/10 ares): 5 (Herbicidal effect of 90% or more, injury to paddy rice)
- Herbicidal effect Mo ([2]; 25.0 g/10 ares): 5 (Herbicidal effect of 90% or more, injury to paddy rice)
- Herbicidal effect Ec ([3]; 0.4 g/10 ares): 0 (Herbicidal effect of less than 10%, injury to paddy rice)
- Herbicidal effect Ec ([3]; 1.6 g/10 ares): 1 (Herbicidal effect of 10% or more to less than 30%, injury to paddy rice)
- Herbicidal effect Ec ([3]; 6.3 g/10 ares): 3 (Herbicidal effect of 50% or more to less than 70%, injury to paddy rice)
- Herbicidal effect Ec ([3]; 25.0 g/10 ares): 4 (Herbicidal effect of 70% or more to less than 90%, injury to paddy rice)
- Injury to rice Or ([9]; 0.6 g/10 ares): 0 (Herbicidal effect of less than 10%, injury to paddy rice)
- Injury to rice Or ([9]; 1.3 g/10 ares): 0 (Herbicidal effect of less than 10%, injury to paddy rice)
- Injury to rice Or ([9]; 2.5 g/10 ares): 0 (Herbicidal effect of less than 10%, injury to paddy rice)
- Injury to rice Or ([9]; 5.0 g/10 ares): 1 (Herbicidal effect of 10% or more to less than 30%, injury to paddy rice)
- Herbicidal effect Cy (Cyperus serotinus Rottb.; 0.6 g/10 ares): 5 (Herbicidal effect of 90% or more, injury to paddy rice)
- Herbicidal effect Cy (Cyperus serotinus Rottb.; 1.3 g/10 ares): 5 (Herbicidal effect of 90% or more, injury to paddy rice)
- Herbicidal effect Cy (Cyperus serotinus Rottb.; 2.5 g/10 ares): 5 (Herbicidal effect of 90% or more, injury to paddy rice)
- Herbicidal effect Cy (Cyperus serotinus Rottb.; 5.0 g/10 ares): 5 (Herbicidal effect of 90% or more, injury to paddy rice)
- Herbicidal effect (Ec) Application stage 1-leaf ([4]; 1.3 g/10 ares): 0 (Herbicidal effect of less than 10%, injury to paddy rice)
- Herbicidal effect (Ec) Application stage 2-leaf ([4]; 1.3 g/10 ares): 0 (Herbicidal effect of less than 10%, injury to paddy rice)
- Herbicidal effect (Ec) Application stage 3-leaf ([4]; 1.3 g/10 ares): 0 (Herbicidal effect of less than 10%, injury to paddy rice)
- Herbicidal effect (Ec) Application stage 1-leaf ([4]; 2.5 g/10 ares): 1 (Herbicidal effect of 10% or more to less than 30%, injury to paddy rice)
- Herbicidal effect (Ec) Application stage 2-leaf ([4]; 2.5 g/10 ares): 0 (Herbicidal effect of less than 10%, injury to paddy rice)
- Herbicidal effect (Ec) Application stage 3-leaf ([4]; 2.5 g/10 ares): 0 (Herbicidal effect of less than 10%, injury to paddy rice)
- Herbicidal effect (Ec) Application stage 1-leaf ([4]; 5.0 g/10 ares): 3 (Herbicidal effect of 50% or more to less than 70%, injury to paddy rice)
- Herbicidal effect (Ec) Application stage 2-leaf ([4]; 5.0 g/10 ares): 2 (Herbicidal effect of 30% or more to less than 50%, injury to paddy rice)
- Herbicidal effect (Ec) Application stage 3-leaf ([4]; 5.0 g/10 ares): 2 (Herbicidal effect of 30% or more to less than 50%, injury to paddy rice)
- Herbicidal effect Ec ([5]; 0.6 g/10 ares): 0 (Herbicidal effect of less than 10%, injury to paddy rice)
- Herbicidal effect Ec ([5]; 1.3 g/10 ares): 1 (Herbicidal effect of 10% or more to less than 30%, injury to paddy rice)
- Herbicidal effect Ec ([5]; 2.5 g/10 ares): 2 (Herbicidal effect of 30% or more to less than 50%, injury to paddy rice)
- Herbicidal effect Ec ([5]; 5.0 g/10 ares): 4 (Herbicidal effect of 70% or more to less than 90%, injury to paddy rice)
